Test [1] deals with human CXCR4 (Homo sapiens, UniProt P61073). Briefly: CXCR4/CXCL12 binding, HTRF format, single concentration (Example 23). More on the design: host or cells: HEK293 (Tag-lite CXCR4 cells, frozen aliquots, transient expression). Particulars: 15 nM CXCR4R fluorescent probe, 3 hours, HEK293 Tag-lite CXCR4 cells. The protocol:
Peptides were initially prepared as 1 mM stock in H2O and tested at a final concentration of 400 nM. Following the manufacture's protocol, a frozen aliquot of Tag-lite CXCR4 cells was thawed and immediately seeded onto 384-well plates in TLB. Immediately following the addition of cells, 400 nM peptide (final concentration) in TLB was added to the appropriate well. Then 15 nM (final concentration; EC80) of CXCR4R fluorescent probe was added to each well to initiate the HTRF assay. The plates were covered in aluminum foil and left at room temperature for 3 hours. Following the 3 hour incubation period, the plates were removed from the incubator and fluorescence measured using a Cytation 1 plate reader using a HTRF filter cube ([…]; BioTek; Winooski, Vt.). According manufacture's instruction data reduction was performed by calculating the ratio of 665 nm signal (TRF of 665 nm excitation by 620 emission; amount of CXCR4R fluorescent probe bound to terbium labeled CXCR receptor)/620 nm signal (620 excitation by 330 nm light source; normalization factor for amount of terbium labeled CXCR4 receptor in well)×10,000.
For orientation: TR-FRET usually uses a lanthanide donor and a delayed reading to cut background.

The subject of test [2] is CXCR4/CXCL12 induced p-MEK. Briefly: CXCR4/CXCL12 induced p-MEK in Jurkat cells (ELISA). It counts as cell-based, human. Particulars: 5 nM CXCL12, 5 min. The protocol:
The assay was performed following a protocol similar to that described by Peng, et al., Mol Cancer Ther., 14 480-90 (2015), incorporated herein by reference. […] Jurkat cells were resuspended in standard growth media (RPMI+GlutaMax media; Gibco/Thermo Fisher Scientific; Gaithersburg, Md.) containing 10% FBS and 1% penicillin/streptomycin. Assays were performed using fresh or conditioned media (media cultured overnight in presence of Jurkat cells) to resuspend cells at density of 2×10^6 cells/ml and […] of cell suspension was immediately placed in 1.7 ml microfuge tubes. […] Following the 5 min incubation, cells were centrifuged at 1000×g for 4 min at 4° C. The supernatant was removed and the cells were rinsed with 1 ml of HBSS containing calcium and magnesium. The HBSS was removed and the cells were immediately lysed in 150 l of lysis buffer included with Phospho-MEK1 (Ser217/221) Sandwich ELISA kit (Cell Signaling Technology; Danvers, Mass.); lysis buffer was supplemented with 1 m M PMSF (Millipore-Sigma; Saint Louis, Mo.) and Halt protease/phosphatase inhibitor cocktail (Thermo-Fisher; Waltham, Mass.) prior to use. The samples were then placed on ice for 10 min and vortexed periodically. Following the lysis step, the samples were centrifuged at 12,500 rpm for 10 min at 4° C. p-MEK expression in each of the samples was then measure using Phospho-MEK1 (Ser217/221) Sandwich ELISA kit according to manufacturer's instructions. Absorbance was measured using a Cytation 3 plate reader at […] (BioTek; Winooski, Vt.).
Background: In an ELISA, binding on a coated surface is turned into a signal by an enzyme label.

Each structure is given as a SMILES string. Square brackets hold non-standard residues; d marks the D form. Peptide text beside a SMILES is read from it.

Chain of human CXCR4 (P61073 whole entry): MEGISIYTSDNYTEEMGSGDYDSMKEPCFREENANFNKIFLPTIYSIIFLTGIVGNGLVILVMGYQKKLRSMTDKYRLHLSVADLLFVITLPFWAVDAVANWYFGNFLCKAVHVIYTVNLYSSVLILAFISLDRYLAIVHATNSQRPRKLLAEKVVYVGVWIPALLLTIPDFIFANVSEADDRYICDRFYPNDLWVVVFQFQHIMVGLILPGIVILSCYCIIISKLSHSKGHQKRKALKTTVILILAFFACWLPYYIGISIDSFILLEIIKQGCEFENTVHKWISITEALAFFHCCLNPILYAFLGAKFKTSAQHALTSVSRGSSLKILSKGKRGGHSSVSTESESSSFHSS

On to `CC(C)C[C@H](NC(=O)[C@H](CO)NC(=O)[C@H](CO)NC(=O)[C@H](CCCNC(=N)N)NC(=O)[C@@H](C)NC(=O)[C@H](CO)NC(=O)[C@H](Cc1c[nH]cn1)NC(=O)[C@H](Cc1c[nH]cn1)NC(=O)[C@H](Cc1ccc(O)cc1)NC(=O)[C@H](CCCNC(=N)N)NC(=O)[C@H](CCC(=O)O)NC(=O)[C@@H](C)N)C(=O)N[C@@H](CCCNC(=N)N)C(=O)N1CCC[C@H]1C(=O)N[C@@H](Cc1ccc(O)cc1)C(=O)N[C@H](C(=O)N[C@@H](CCCCN)C(=O)O)[C@@H](C)O` [compound 35] (H-[dA]ERYHHS[dA]RSSLRPYTK-OH; N-terminus and C-terminus assumed), for which the “Percent Inhibition of CXCR4/CXCL12 Binding (400 nM peptide)” value in test [1] was −13%. In addition, in test [2], the “Percent Inhibition of CXCR4/CXCL12 Induced p-MEK (100 nM Test Article)” value is recorded as −7% and the “Percent Inhibition of CXCR4/CXCL12 Induced p-MEK (1 μM Test Article)” value is reported as −6%.

As to `CC(C)C[C@H](NC(=O)[C@H](CO)NC(=O)[C@H](CO)NC(=O)[C@H](CCCNC(=N)N)NC(=O)[C@@H](C)NC(=O)[C@H](CO)NC(=O)[C@H](Cc1c[nH]cn1)NC(=O)[C@H](CCC(N)=O)NC(=O)[C@H](Cc1ccc(O)cc1)NC(=O)[C@H](CCCNC(=N)N)NC(=O)[C@H](CCC(=O)O)NC(=O)[C@@H](N)CC(C)C)C(=O)N[C@@H](CCCNC(=N)N)C(=O)N1CCC[C@H]1C(=O)N[C@@H](Cc1ccc(O)cc1)C(=O)N[C@H](C(=O)N[C@@H](CCCCN)C(=O)O)[C@@H](C)O` [compound 49] (H-LERYQHS[dA]RSSLRPYTK-OH; N-terminus and C-terminus assumed), the “Percent Inhibition of CXCR4/CXCL12 Binding (400 nM peptide)” value in test [1] is listed as 20%.

`CC(C)C[C@H](NC(=O)[C@H](CO)NC(=O)[C@H](CO)NC(=O)[C@H](CCCNC(=N)N)NC(=O)[C@@H](NC(=O)[C@H](CO)NC(=O)[C@H](CCC(N)=O)NC(=O)[C@H](Cc1c[nH]cn1)NC(=O)[C@H](Cc1ccc(O)cc1)NC(=O)[C@H](CCCNC(=N)N)NC(=O)[C@H](CCC(=O)O)NC(=O)[C@@H](N)CC(C)C)C(C)C)C(=O)N[C@@H](CCCNC(=N)N)C(=O)N1CCC[C@H]1C(=O)N[C@@H](Cc1ccc(O)cc1)C(=O)N[C@H](C(=O)N[C@@H](CCCCN)C(=O)O)[C@@H](C)O` [compound 51] (H-LERYHQSVRSSLRPYTK-OH; N-terminus and C-terminus assumed): the “Percent Inhibition of CXCR4/CXCL12 Binding (400 nM peptide)” value in test [1] is recorded as −2%.

On to `CC(C)C[C@H](NC(=O)[C@H](CO)NC(=O)[C@H](CO)NC(=O)[C@H](CCC(=O)O)NC(=O)[C@@H](NC(=O)[C@H](CO)NC(=O)[C@H](Cc1c[nH]cn1)NC(=O)[C@H](Cc1c[nH]cn1)NC(=O)[C@H](Cc1ccc(O)cc1)NC(=O)[C@H](CCCNC(=N)N)NC(=O)[C@H](CCCNC(=N)N)NC(=O)[C@@H](N)CC(C)C)C(C)C)C(=O)N[C@@H](CCCNC(=N)N)C(=O)N1CCC[C@H]1C(=O)N[C@@H](Cc1ccc(O)cc1)C(=O)N[C@H](C(=O)N[C@@H](CCCCN)C(=O)O)[C@@H](C)O` [compound 62] (H-LRRYHHSVESSLRPYTK-OH; N-terminus and C-terminus assumed), for which the “Percent Inhibition of CXCR4/CXCL12 Binding (400 nM peptide)” value in test [1] came to 4%.

Take `CC(C)C[C@H](NC(=O)[C@H](CO)NC(=O)[C@H](CO)NC(=O)[C@H](CCCNC(=N)N)NC(=O)[C@@H](C)NC(=O)[C@H](CO)NC(=O)[C@H](Cc1c[nH]cn1)NC(=O)[C@H](Cc1c[nH]cn1)NC(=O)[C@H](Cc1ccc(O)cc1)NC(=O)[C@H](CCCNC(=N)N)NC(=O)[C@H](CCCNC(=N)N)NC(=O)[C@@H](N)CC(C)C)C(=O)N[C@@H](CCC(=O)O)C(=O)N1CCC[C@H]1C(=O)N[C@@H](Cc1ccc(O)cc1)C(=O)N[C@H](C(=O)N[C@@H](CCCCN)C(=O)O)[C@@H](C)O` [compound 65] (H-LRRYHHS[dA]RSSLEPYTK-OH; N-terminus and C-terminus assumed): in test [1], the “Percent Inhibition of CXCR4/CXCL12 Binding (400 nM peptide)” value is −5%.

For the compound `CC(C)C[C@H](NC(=O)[C@H](CO)NC(=O)[C@H](CO)NC(=O)[C@H](CC(=O)O)NC(=O)[C@@H](NC(=O)[C@H](CO)NC(=O)[C@H](Cc1c[nH]cn1)NC(=O)[C@H](Cc1c[nH]cn1)NC(=O)[C@H](Cc1ccc(O)cc1)NC(=O)[C@H](CCCNC(=N)N)NC(=O)[C@H](CCCNC(=N)N)NC(=O)[C@@H](N)CC(C)C)C(C)C)C(=O)N[C@@H](CCCNC(=N)N)C(=O)N1CCC[C@H]1C(=O)N[C@@H](Cc1ccc(O)cc1)C(=O)N[C@H](C(=O)N[C@@H](CCCCN)C(=O)O)[C@@H](C)O` [compound 66] (H-LRRYHHSVDSSLRPYTK-OH; N-terminus and C-terminus assumed), the “Percent Inhibition of CXCR4/CXCL12 Binding (400 nM peptide)” value in test [1] was −5%. Moreover, in test [2], the “Percent Inhibition of CXCR4/CXCL12 Induced p-MEK (100 nM Test Article)” value was −7% and the “Percent Inhibition of CXCR4/CXCL12 Induced p-MEK (1 μM Test Article)” value came out at 13%.

In the case of `CC(C)C[C@H](NC(=O)[C@H](CO)NC(=O)[C@H](CO)NC(=O)[C@H](CC(=O)O)NC(=O)[C@@H](C)NC(=O)[C@H](CO)NC(=O)[C@H](Cc1c[nH]cn1)NC(=O)[C@H](Cc1c[nH]cn1)NC(=O)[C@H](Cc1ccc(O)cc1)NC(=O)[C@H](CCCNC(=N)N)NC(=O)[C@H](CCCNC(=N)N)NC(=O)[C@@H](N)CC(C)C)C(=O)N[C@@H](CCCNC(=N)N)C(=O)N1CCC[C@H]1C(=O)N[C@@H](Cc1ccc(O)cc1)C(=O)N[C@H](C(=O)N[C@@H](CCCCN)C(=O)O)[C@@H](C)O` [compound 68] (H-LRRYHHS[dA]DSSLRPYTK-OH; N-terminus and C-terminus assumed), in test [1], the “Percent Inhibition of CXCR4/CXCL12 Binding (400 nM peptide)” value is −10%.

Turning to `CC(C)C[C@H](NC(=O)[C@H](CO)NC(=O)[C@H](CO)NC(=O)[C@H](CCCNC(=N)N)NC(=O)[C@@H](C)NC(=O)[C@H](CO)NC(=O)[C@H](Cc1c[nH]cn1)NC(=O)[C@H](Cc1c[nH]cn1)NC(=O)[C@H](Cc1ccc(O)cc1)NC(=O)[C@H](CCCNC(=N)N)NC(=O)[C@H](CCCNC(=N)N)NC(=O)[C@@H](N)CC(C)C)C(=O)N[C@@H](CC(=O)O)C(=O)N1CCC[C@H]1C(=O)N[C@@H](Cc1ccc(O)cc1)C(=O)N[C@H](C(=O)N[C@@H](CCCCN)C(=O)O)[C@@H](C)O` [compound 69] (H-LRRYHHS[dA]RSSLDPYTK-OH; N-terminus and C-terminus assumed), the “Percent Inhibition of CXCR4/CXCL12 Binding (400 nM peptide)” value in test [1] is reported as −5%.

Turning to `CC(C)C[C@H](NC(=O)[C@H](CO)NC(=O)[C@H](CO)NC(=O)[C@H](CCCNC(=N)N)NC(=O)[C@@H](C)NC(=O)[C@H](CO)NC(=O)[C@H](Cc1c[nH]cn1)NC(=O)[C@H](Cc1c[nH]cn1)NC(=O)[C@H](Cc1ccc(O)cc1)NC(=O)[C@H](CCCNC(=N)N)NC(=O)[C@H](CCC(=O)O)NC(=O)[C@@H](N)CC(C)C)C(=O)N[C@@H](CCCNC(=N)N)C(=O)N1CCC[C@H]1C(=O)N[C@@H](Cc1ccc(O)cc1)C(=O)N[C@@H](CO)C(=O)N[C@@H](CCCCN)C(=O)O` [compound 78] (H-LERYHHS[dA]RSSLRPYSK-OH; N-terminus and C-terminus assumed), the “Percent Inhibition of CXCR4/CXCL12 Binding (400 nM peptide)” value in test [1] stood at 72%. In test [2], the “Percent Inhibition of CXCR4/CXCL12 Induced p-MEK (100 nM Test Article)” value is reported as 29% and the “Percent Inhibition of CXCR4/CXCL12 Induced p-MEK (1 μM Test Article)” value stood at 46%.

(Values after US20220395553A1, “CXCR4 ANTAGONIST PEPTIDES” (COHBAR, INC., priority 2019, published 2022).)
